Results taken from PubChem BioAssay (NCI).
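Five compound concentrations were applied to cells in 96-well plates for 48 hours; endpoints were derived by simple linear interpolation of the resulting dose-response curve. TGI denotes the concentration required for complete inhibition of growth.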

Legend:
Test in all cases: NCI anticancer screen, dose series, 48 h
SF-539 CNS = system: SF-539 CNS
RXF 393 renal = system: RXF 393 renal
SW-620 colon = system: SW-620 colon
OVCAR-3 ovarian = system: OVCAR-3 ovarian
HOP-92 NSCLC = system: HOP-92 NSCLC
CAKI-1 renal = system: CAKI-1 renal
MDA-N = system: MDA-N
OVCAR-4 ovarian = system: OVCAR-4 ovarian
IGROV1 ovarian = system: IGROV1 ovarian
NCI-H226 lung = system: NCI-H226 lung
KM12 colon = system: KM12 colon
HCC-2998 colon = system: HCC-2998 colon
ACHN renal = system: ACHN renal
SK-OV-3 ovarian = system: SK-OV-3 ovarian

Cc1ccc(C2=NN=C3C(c4ccccc4)=Nc4ccccc4N3C2)cc1
TGI (SF-539 CNS): > 100 µM
TGI (RXF 393 renal): 33.7 µM
TGI (SW-620 colon): > 100 µM
TGI (OVCAR-3 ovarian): 10.4 µM
TGI (HOP-92 NSCLC): > 72.9 µM
TGI (CAKI-1 renal): > 100 µM
TGI (MDA-N): > 100 µM
TGI (OVCAR-4 ovarian): 21.8 µM
TGI (IGROV1 ovarian): > 100 µM
TGI (NCI-H226 lung): > 100 µM
TGI (KM12 colon): > 100 µM
TGI (HCC-2998 colon): > 100 µM
TGI (ACHN renal): > 100 µM
TGI (SK-OV-3 ovarian): 85.7 µM

C/C(=N/NC(=S)Nc1ccccc1C)c1ccccn1
TGI (SF-539 CNS): 8.15 µM
TGI (RXF 393 renal): 13.2 µM
TGI (SW-620 colon): 29.2 µM
TGI (OVCAR-3 ovarian): 9.47 µM
TGI (HOP-92 NSCLC): 17 µM
TGI (CAKI-1 renal): 19.5 µM
TGI (MDA-N): 20.1 µM
TGI (OVCAR-4 ovarian): 18.5 µM
TGI (IGROV1 ovarian): 12.1 µM
TGI (NCI-H226 lung): 2.47 µM
TGI (KM12 colon): 17.4 µM
TGI (HCC-2998 colon): 26 µM
TGI (ACHN renal): 10.3 µM
TGI (SK-OV-3 ovarian): 14.8 µM

O=C(CC(O)(C(F)(F)Cl)C(F)(F)Cl)CC(O)(C(F)(F)Cl)C(F)(F)Cl
TGI (SF-539 CNS): > 10 µM
TGI (RXF 393 renal): 6.08 µM
TGI (SW-620 colon): > 10 µM
TGI (OVCAR-3 ovarian): > 10 µM
TGI (HOP-92 NSCLC): 3.04 µM
TGI (CAKI-1 renal): 6.62 µM
TGI (MDA-N): > 10 µM
TGI (OVCAR-4 ovarian): 9.67 µM
TGI (IGROV1 ovarian): > 10 µM
TGI (NCI-H226 lung): 4.66 µM
TGI (KM12 colon): > 10 µM
TGI (HCC-2998 colon): > 10 µM
TGI (ACHN renal): > 10 µM
TGI (SK-OV-3 ovarian): 5.89 µM

CC(Cc1ccc(O)cn1)(NC(=O)c1ccccc1)C(=O)O (stereo not given)
TGI (SF-539 CNS): > 100 µM
TGI (RXF 393 renal): > 100 µM
TGI (SW-620 colon): > 100 µM
TGI (OVCAR-3 ovarian): > 100 µM
TGI (HOP-92 NSCLC): > 100 µM
TGI (CAKI-1 renal): > 100 µM
TGI (MDA-N): > 100 µM
TGI (OVCAR-4 ovarian): > 100 µM
TGI (IGROV1 ovarian): > 100 µM
TGI (NCI-H226 lung): > 100 µM
TGI (KM12 colon): > 100 µM
TGI (HCC-2998 colon): > 100 µM
TGI (ACHN renal): > 100 µM
TGI (SK-OV-3 ovarian): > 100 µM

Cc1ccc2[nH]c3c(C)c4cc[n+](C)cc4c(C)c3c2c1
TGI (SF-539 CNS): 2.73 µM
TGI (RXF 393 renal): 18.3 µM
TGI (SW-620 colon): 12.2 µM
TGI (OVCAR-3 ovarian): 19.2 µM
TGI (HOP-92 NSCLC): 33.7 µM
TGI (CAKI-1 renal): > 56.5 µM
TGI (MDA-N): 22.1 µM
TGI (OVCAR-4 ovarian): 13.4 µM
TGI (IGROV1 ovarian): 32.2 µM
TGI (NCI-H226 lung): 3.24 µM
TGI (KM12 colon): 6.89 µM
TGI (HCC-2998 colon): 10.1 µM
TGI (ACHN renal): 57.9 µM
TGI (SK-OV-3 ovarian): 50.2 µM

O=c1cc(CN2CCCCC2)[nH]c2c1ccc1nc(CN3CCCCC3)cc(=O)n12
TGI (SF-539 CNS): > 100 µM
TGI (RXF 393 renal): > 100 µM
TGI (SW-620 colon): > 100 µM
TGI (OVCAR-3 ovarian): > 100 µM
TGI (HOP-92 NSCLC): > 100 µM
TGI (CAKI-1 renal): > 100 µM
TGI (MDA-N): > 100 µM
TGI (OVCAR-4 ovarian): > 100 µM
TGI (IGROV1 ovarian): > 100 µM
TGI (NCI-H226 lung): > 100 µM
TGI (KM12 colon): > 100 µM
TGI (HCC-2998 colon): > 100 µM
TGI (ACHN renal): > 100 µM
TGI (SK-OV-3 ovarian): > 100 µM

COc1cc(C)cc(C(=O)OCc2ccccc2)c1C1=C(Cl)C(=O)C(Cl)=CC1=O
TGI (SF-539 CNS): > 10 µM
TGI (RXF 393 renal): > 10 µM
TGI (SW-620 colon): > 10 µM
TGI (OVCAR-3 ovarian): > 10 µM
TGI (HOP-92 NSCLC): 9.92 µM
TGI (CAKI-1 renal): > 10 µM
TGI (MDA-N): > 10 µM
TGI (OVCAR-4 ovarian): > 9 µM
TGI (IGROV1 ovarian): > 10 µM
TGI (NCI-H226 lung): > 10 µM
TGI (KM12 colon): > 10 µM
TGI (HCC-2998 colon): > 10 µM
TGI (ACHN renal): > 10 µM
TGI (SK-OV-3 ovarian): > 10 µM

C=CC(Br)(CBr)CCC1OC1(C)C (stereo not given)
TGI (SF-539 CNS): 33.9 µM
TGI (RXF 393 renal): 21.4 µM
TGI (SW-620 colon): 26.8 µM
TGI (OVCAR-3 ovarian): 36.8 µM
TGI (HOP-92 NSCLC): 28.2 µM
TGI (CAKI-1 renal): 36.4 µM
TGI (MDA-N): 24.5 µM
TGI (OVCAR-4 ovarian): 30.5 µM
TGI (IGROV1 ovarian): 26.7 µM
TGI (NCI-H226 lung): 42.6 µM
TGI (KM12 colon): 30.9 µM
TGI (HCC-2998 colon): 33.1 µM
TGI (ACHN renal): 34.1 µM
TGI (SK-OV-3 ovarian): 51.7 µM

CCCCCCCCOP(=O)(O)OP(=O)(O)OCC1OC(n2ccc(N)nc2=O)C(O)C1O (stereo not given)
TGI (SF-539 CNS): > 100 µM
TGI (RXF 393 renal): > 100 µM
TGI (SW-620 colon): > 100 µM
TGI (OVCAR-3 ovarian): > 100 µM
TGI (HOP-92 NSCLC): > 100 µM
TGI (CAKI-1 renal): > 100 µM
TGI (MDA-N): > 100 µM
TGI (OVCAR-4 ovarian): > 100 µM
TGI (IGROV1 ovarian): > 100 µM
TGI (NCI-H226 lung): > 100 µM
TGI (KM12 colon): > 100 µM
TGI (HCC-2998 colon): > 100 µM
TGI (ACHN renal): > 100 µM
TGI (SK-OV-3 ovarian): > 100 µM

CCCCN(CCCC)C1(c2cc3ccccc3s2)CCCCC1
TGI (SF-539 CNS): 34.9 µM
TGI (RXF 393 renal): 30.8 µM
TGI (SW-620 colon): 33.8 µM
TGI (OVCAR-3 ovarian): 29.9 µM
TGI (HOP-92 NSCLC): 25.5 µM
TGI (CAKI-1 renal): 32.8 µM
TGI (MDA-N): 31.5 µM
TGI (OVCAR-4 ovarian): 30 µM
TGI (IGROV1 ovarian): 31.2 µM
TGI (NCI-H226 lung): 33.9 µM
TGI (KM12 colon): 30.4 µM
TGI (HCC-2998 colon): 27.4 µM
TGI (ACHN renal): 30.3 µM
TGI (SK-OV-3 ovarian): 36.3 µM
